Among the data in ChEMBL document CHEMBL1137606, “Synthesis of novel phytosphingosine derivatives and their preliminary biological evaluation for enhancing radiation therapy” (2007) are Activity values, retold here.

Test [1] has as its system Jurkat. Kind of test: Cytotoxicity against human Jurkat cells at 10 uM after 30 mins. Format: functional, cell-based.
In test [2] the test system is Jurkat. Kind of test: Cytotoxicity against gamma irradiated human Jurkat cells at 10 uM after 30 mins relative to control. In kind it is functional.

Activity calls are given as the source filed them. The rule behind the calls is not given here.

Turning to `CCCCCCCCCCCCCC[C@@H](O)[C@@H](O)[C@@H](N)CO`, the outcome in test [1] was Active. Further, in test [2], the outcome was inactive.
`CCCCCCCCCCCCCC[C@@H](O)[C@@H](O)[C@H](CO)NC(=O)CCCC(=O)OCC` registered an Activity in test [2] of 19%.
In the case of `CCCCCCCCCCCCCC[C@@H](O)[C@@H](O)[C@H](CO)NC(=O)CCC(=O)OCC`, in test [2], the Activity was 12%.
In the case of `CCCCCCCCCCCCCC[C@@H](O)[C@@H](O)[C@H](CO)NC(=O)CCCCCCCCC(=O)OC`, in test [1], the outcome was Active. The outcome in test [2] was inactive.
Take `CCCCCCCCCCCCCC[C@@H](O)[C@@H](O)[C@H](CO)NC(=O)COCc1ccccc1`: in test [2], the Activity amounted to 11%.
